Measured values reported in paper doi:10.1101/2024.06.10.598391v1 (bioRxiv, 2024).

Legend:
[1] = Micelle morphology by negative-stain TEM; assay type: physicochemical; conditions: 5 µM; for Morphology: negative-stain TEM (NanoW), 120 kV, categories by L/D; for Cylinder length / Sphere diameter: negative-stain TEM
[2] = Secondary structure by circular dichroism; assay type: physicochemical; conditions: CD, 40 μM in PBS; for combined α-helix and random coil content: sum of α-helix and random coil; for organized secondary structure (α-helix and β-sheet): sum of α-helix and β-sheet
[3] = tested on: RAW 264.7 (macrophage-like cells - Mφs); test: Cell viability of LPS-treated Mφs by flow cytometry; assay type: cell-based, murine; conditions: for cell viability relative to untreated cells: 10 µM
[4] = tested on: secreted tumor necrosis factor-α (TNF-α) of LPS-activated RAW 264.7 Mφs; test: TNF-α secretion of LPS-activated Mφs; assay type: cell-based, murine; conditions: 6 h, ELISA
[5] = tested on: RAW 264.7 (macrophage-like cells - Mφs); test: Micelle association with Mφs by flow cytometry; assay type: cell-based, murine; conditions: 5 µM, 1:19 FAM-PA:Non-FAM-PA
[6] = tested on: RAW 264.7 (macrophage-like cells - Mφs); test: Micelle surface attachment and internalization by Mφs, confocal microscopy; assay type: cell-based, murine; conditions: 5 µM, 1:19 FAM-PA:Non-FAM-PA, LPS 0.1 µg/mL
[7] = LPS-treated (0.1 µg/mL) Mφs, six hours, flow cytometry

| Substance | Morphology [1] | Cylinder length [1] | Sphere diameter [1] | other results |
| --- | --- | --- | --- | --- |
| VIP(^SVIP)-KEKEEEEE-CONH2 [Palm2K-^SVIP-(KE)2E4] | Spheres + Short/Small Cylinders | 50 - 250 nm | 10 - 20 nm |  |
| VIP(^SVIP)-KEKEKEKE-CONH2 [Palm2K-^SVIP-(KE)4] | Spheres |  | 10 - 15 nm | combined α-helix and random coil content [2]: 41.5% |
| VIP(^SVIP)-KEKEKEKE-CONH2 [PalmK-^SVIP-(KE)4] | Mostly Large/Long Cylinders | 1000 - 9000 nm |  |  |
| VIP(^SVIP)-KEKEKKKK-CONH2 [Palm2K-VIP-(KE)2K4] | Mostly Spheres |  | 10 - 15 nm | combined α-helix and random coil content [2]: 46.5% |
| Ac-HSDAVFTDNYTRLRKQMAVKKYLNSILN-CONH2 [VIP, reference compound] | lacks any particle structure |  |  | cytotoxicity ([3]; LPS-treated (0.1 µg/mL) Mφs, up to 5 µM, six hours, flow cytometry): Minimal cytotoxicity; modulation of TNF-α secretion ([4]; 1 µM and 2.5 µM): No appreciable modulation; modulation of TNF-α secretion ([4]; 5 µM and 10 µM): significant TNF-α suppression; organized secondary structure (α-helix and β-sheet) [2]: 49.4% |
| VIP(^SVIP)-KEKEKKKK-CONH2 [Palm2K-^SVIP-(KE)2K4] | Small/Medium Cylinders | 100 - 400 nm |  | percentage of Mφs associated with fluorophore-labeled micelles ([5]; 1 hour): Mφs preferred to associate |
| Ac-NSDLIATDSYTRMRKQVLANKKFHYLVN-NH2 [^SVIP] | Amorphous aggregates |  |  | viability of treated cells ([3]; LPS-treated Mφs, 5 µM, 6 hours (Figure 3a)): remained high; organized secondary structure (α-helix and β-sheet) [2]: 46.6% |
| VIP(^SVIP)-KEKEEEEE-CONH2 [Palm2K-VIP-(KE)2E4] | Spheres + Short/Small Cylinders | 20 - 300 nm | 10 - 20 nm | MFI of micelle-associated Mφs ([5]; 6 hours): greatest Mφ association; micelle location on/in Mφs ([6]; 6 hours): cell membranes coated |
| VIP(^SVIP)-KEKEKEKE-CONH2 [PalmK-VIP-(KE)4] | Mostly Large/Long Cylinders | 1000 - 9000 nm |  | cell viability relative to untreated cells [3, 7]: 70 - 80%; micelle location on/in Mφs ([6]; 1 hour): only found along the Mφ cell membrane |
| VIP(^SVIP)-KEKEKEKE-CONH2 [Palm2K-VIP-(KE)4] | Small/Medium Cylinders | 100 - 700 nm |  | cell viability relative to untreated cells [3, 7]: 70 - 80%; modulation of TNF-α secretion ([4]; 5 µM and 10 µM): significant TNF-α suppression; micelle location on/in Mφs ([6]; 1 hour): only found along the Mφ cell membrane |
